{
  "source": "patent US6221670A",
  "about": "“Methods to identify β-amyloid reducing agents” (Scios Inc., priority 1997, dated 2001)",
  "key": {"[1]": {"assay": "toxicity in transgenic mouse hippocampal organotypic slice culture by LDH assay of serum free conditioned media", "format": "cell-based, mice transgenic for β-APP751", "settings": "25 μM to 400 μM, 3 days, then additional 24 hours in serum free media, not toxic until this concentration, read-out: concentration at which toxicity became apparent by LDH assay", "method": "Detailed description of FIG. 4. Hippocampal organotypic slice cultures were prepared from mice transgenic for β-APP751. On day 21 in vitro, organotypic cultures were washed with media twice, and duplicate wells were incubated for a 3-day conditioning period in media supplemented with 25 μM to 400 μM MDL 28170, a protease inhibitor shown to inhibit total β-amyloid production in cell culture with an IC50 of 100 μM. MDL 28170 was applied from 100×stock solutions prepared in DMSO. Control culture received only DMSO. Conditioned media was collected at day 24 and assayed in duplicate for β-amyloid 1-40 using a sandwich ELISA. Organotypic cultures were washed with serum free media twice and incubated for an additional 24 hours in serum free media in the continued presence of MDL 28170. This conditioned media was assayed for lactate dehydrogenase (LDH) activity. LDH is a ubiquitous cytosolic enzyme released into conditioned media only by unhealthy cells and is an index of viability and toxicity. High levels of LDH activity in serum require measurements to be made in serum free conditioned media. Data points shown were calculated by first taking the mean of duplicate ELISA values for each well, and then calculating the mean of the values for the duplicate treatment wells.\nAssessment of β-amyloid inhibitor activity and toxicity. Cultures are observed visually approximately every other day. […]"}, "[2]": {"assay": "toxicity in transgenic mouse hippocampal organotypic slice culture by visual inspection", "format": "cell-based, mice transgenic for β-APP751", "settings": "25 μM to 400 μM, not toxic until this concentration, read-out: concentration at which toxicity became apparent by visual inspection", "method": "Assessment of β-amyloid inhibitor activity and toxicity. Cultures are observed visually approximately every other day. Prior to the commencement of compound testing, on day 18 in culture, a three day test period was initiated in which media was conditioned by the untreated cultures. This media was collected and assayed for β-amyloid 1-40 and 1-42 levels using sensitive ELISAs. Organotypic cultures were then washed with media twice, and incubated for a further 3 day conditioning period in media supplemented with 25 μM to 400 μM MDL 28170, a protease inhibitor shown to inhibit total β-amyloid production in cell culture with an IC50 of 100 μM. MDL 28170 was applied from 100×stock solutions prepared in DMSO. Control culture received only DMSO. After conditioned media was collected at […], organotypic cultures were washed with serum free media twice and incubated for an additional 24 hours in serum free media in the continued presence of MDL 28170. This conditioned media was assayed for lactate dehydrogenase (LDH) activity. LDH is a ubiquitous cytosolic enzyme released into conditioned media only by unhealthy cells and is an index of viability and toxicity. High levels of LDH activity in serum require measurements to be made in serum free conditioned media. […]"}, "[3]": {"tested_on": "total β-amyloid production", "settings": "cited from earlier work"}, "β-amyloid 1-40": {"tested_on": "β-amyloid 1-40", "assay": "β-amyloid 1-40 secretion by transgenic mouse hippocampal organotypic slice culture (sandwich ELISA)", "format": "cell-based", "settings": "72 h; 25 μM to 400 μM, 3-day conditioning period, FIG. 4; read-out: IC50 for β-amyloid production by transgenic mouse hippocampal organotypic slice culture", "method": "Preparation of cultures. Ten day old mouse pups transgenic for the 751 amino acid isoform of human β-amyloid precursor protein (β-APP),programmed for neural expression by the neuron specific enolase promoter were used as tissue source for hippocampal organotypic slice cultures. Cultures were prepared as for rat brain slice organotypic cultures described in Example 1.\nPreperation of cultures. Hippocampal organotypic slice cultures were prepared as described in example 2, from 10 day old mice transgenic for the 751 amino acid isoform of human β-amyloid precursor protein (β-APP), programmed for neural expression by the neuron specific enolase promoter and maintained in culture for 10 days.\nPreparation of cultures. Hippocampal organotypic slice cultures are prepared from 10 day old mice transgenic for the 751 amino acid isoform of human β-amyloid precursor protein (β-APP), programmed for neural expression by the neuron specific enolase promoter as described in Example 2, and maintained in culture for 6 weeks.\nDetailed description of FIG. 4. Hippocampal organotypic slice cultures were prepared from mice transgenic for β-APP751. […] Data points shown were calculated by first taking the mean of duplicate ELISA values for each well, and then calculating the mean of the values for the duplicate treatment wells. […]"}},
  "note": "Where a SMILES comes first, the peptide text is derived from it. The star is where a group is joined. Cbz = O=C(OCc1ccccc1)*",
  "data": [
    {"smiles": "CC(C)[C@H](NC(=O)OCc1ccccc1)C(=O)N[C@H](C=O)Cc1ccccc1", "note": "[MDL 28170] (Cbz-Val-Phe-aldehyde)", "values": [
      {"measurement": "MCC", "setting": "[1]", "value": 400, "unit": "µM"},
      {"measurement": "MCC", "setting": "[2]", "value": 400, "unit": "µM"},
      {"measurement": "IC50", "setting": "[3]; cell culture (monotypic cells), previously shown, read-out: IC50 for inhibition of total β-amyloid production in cell culture", "value": 100, "unit": "µM"},
      {"measurement": "reversibility of MDL activity on cultured monotypic cells", "setting": "[3]; cultured monotypic cells", "value": "reversible"},
      {"measurement": "IC50", "setting": "β-amyloid 1-40", "value": 100, "unit": "µM"}
    ]}
  ]
}
